PubChem BioAssay (NCI)
Where “and” joins values, the source holds several entries; their conditions need not be identical. Equal values may be shown once.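 Compound exposure: 48 hours, 5 concentrations, 96-well plates. Here, GI50 denotes the concentration required for 50% inhibition of growth. TGI is the concentration that stops growth completely.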

What was measured:
Assay in all cases: inhibition of tumour cell growth, NCI panel, 48 h
HL-60(TB) leukemia = system: HL-60(TB) leukemia
HOP-62 NSCLC = system: HOP-62 NSCLC
KM12 colon = system: KM12 colon
MALME-3M melanoma = system: MALME-3M melanoma
MDA-MB-231 breast = system: MDA-MB-231 breast
NCI-H522 lung = system: NCI-H522 lung
SF-295 CNS = system: SF-295 CNS
SK-MEL-2 melanoma = system: SK-MEL-2 melanoma
SK-MEL-5 melanoma = system: SK-MEL-5 melanoma
SK-OV-3 ovarian = system: SK-OV-3 ovarian

SMILES | GI50 (HL-60(TB) leukemia) [µM] | TGI (HL-60(TB) leukemia) [µM] | GI50 (HOP-62 NSCLC) [µM] | TGI (HOP-62 NSCLC) [µM] | GI50 (KM12 colon) [µM] | TGI (KM12 colon) [µM] | GI50 (MALME-3M melanoma) [µM] | TGI (MALME-3M melanoma) | GI50 (MDA-MB-231 breast) [µM] | TGI (MDA-MB-231 breast) [µM] | GI50 (NCI-H522 lung) [µM] | TGI (NCI-H522 lung) [µM] | GI50 (SF-295 CNS) [µM] | GI50 (SK-MEL-2 melanoma) [µM] | TGI (SK-MEL-2 melanoma) [µM] | GI50 (SK-MEL-5 melanoma) [µM] | TGI (SK-MEL-5 melanoma) | GI50 (SK-OV-3 ovarian) [µM] | TGI (SK-OV-3 ovarian) [µM] | TGI (SF-295 CNS)
COc1cc([C@@H]2c3cc4c(cc3[C@H](OC3OC5COC(c6ccccc6)OC5C(O)C3O)[C@H]3COC(=O)[C@H]23)OCO4)cc(OC)c1OC (stereo not given in full) | 0.342 | 1.46 | 0.456 | 5.32 | 0.326 | 1.55 | 1.17 | 4.89 µM | 0.422 | 29 | 0.322 | 3.3 | 0.27 | 0.978 | 5.64 | 0.242 | 0.715 µM | 0.441 | 18.5 | –
CCOC(=O)c1cc2c(n1Cc1cccc(OC)c1)-c1oncc1CC2 | 0.297 | 1.63 | 0.86 | > 100 | 0.55 | > 100 | 0.571 | 76.5 µM | 4.87 | > 100 | 0.237 | 1.42 | 0.433 | 1.11 | > 100 | 0.595 | 11.3 µM | 2.42 | > 100 | 49.7 µM
O=C(Cn1ccnc1[N+](=O)[O-])NCCO | – | > 100 | – | > 100 | – | > 100 | – | > 100 µM | – | > 100 | – | > 100 | – | – | > 100 | – | > 100 µM | – | > 100 | > 100 µM
COc1c(O)c2ccccc2c2cc(O)ccc12 | – | 27 | – | 31.3 | – | 25.7 | – | 3.18 µM | – | 19.4 | – | 15.7 | – | – | 11.9 | – | 5.59 µM | – | 55 | 23.5 µM
CCc1nc(N)nc(N)c1-c1ccc(Cl)cc1 | 6.67 | > 100 | 26.7 | > 100 | 16.1 | > 100 | 59.3 | > 100 µM and 99.6 µM | 34.2 | > 100 | – | > 100 | 3.17 | – | > 100 | 4.14 | > 100 µM and 19.8 µM | 84.9 | > 100 | 37.9 µM and > 100 µM
CC/C=C/[C@@H]1C=C[C@@H]2CCC[C@H]2[C@@H]1CC[C@H](O)[C@H](C)N | 1.33 | 2.91 | 1.47 | 2.8 | 1.7 | 3.07 | 1.35 | 2.95 µM | 1.78 | 3.22 | 1.82 | 3.99 | 1.75 | 2.11 | 4.73 | 1.69 | 3.16 µM | 1.69 | 4.15 | 3.9 µM
Cc1cc(Cl)n2c(nc3ccccc32)c1C#N | 0.241 | 1.09 | 0.572 | 3.45 | 0.341 | 1.44 | 0.858 | 2.63 µM | 0.649 | 4.58 | 0.235 | 1.22 | 0.521 | 0.396 | 2.25 | 0.573 | 3.45 µM | 3.81 | 15.6 | 4.91 µM
COc1cc[c]([Hg][Cl])cc1 | 3.08 | 7.67 | 20.4 | 37.8 | 14.4 | 27.8 | 1.88 | 3.69 µM | 2.19 | 4.92 | 0.45 | 2.61 | 15.5 | 4.39 | 17.4 | 2.71 | 11.1 µM | 14.2 | 27.3 | 29.7 µM
CCOP1(=O)OCC2OC(n3cnc4c(N)ncnc43)C(O)C2O1 (stereo not given) | – | > 100 | – | > 100 | – | > 100 | – | > 100 µM | – | > 100 | – | > 100 | – | – | > 100 | – | > 100 µM | – | > 100 | > 100 µM
CC(=O)OCC1OC(n2cc(F)c(=O)[nH]c2=O)C(OC(C)=O)C1OC(C)=O (stereo not given) | – | > 100 | – | > 96.5 | – | > 100 | – | > 100 µM | – | > 56.2 | – | > 95.5 | – | – | > 100 | – | > 100 µM | – | > 100 | > 100 µM
Cc1ncc(C(=O)Nc2ccc(CN3CCN(C)CC3)c(C(F)(F)F)c2)cc1C#Cc1c(N)ncc2ccc(C#N)cc12 | 9.24 | > 50 | 0.988 | 11.2 | 0.005 | 2.09 | 0.0167 | 0.157 µM | 0.161 | 1.89 | 1.61 | 21.7 | > 26.7 | 1.74 | 17.5 | 1.1 | 8.59 µM | 1.7 | 10.9 | > 50 µM
CCc1cc(C(N)=O)ccc1-n1nc(C(C)C)c2c(-n3cnc(-c4cnn(C)c4)c3)ccnc21 | 1.14 | > 100 | 7.92 | > 100 | 0.463 | 6.28 | 1.05 | > 31.3 µM | 3.25 | > 100 | 1.47 | > 100 | 0.992 | 4.41 | > 100 | 3.98 | > 100 µM | 0.492 | > 100 | 10.3 µM
COc1ccc(C(=O)/C=C/c2ccc(Cl)cc2)cc1S(N)(=O)=O | 3.08 | 8.77 | 2.51 | 8.62 | 1.73 | 3.78 | 5.89 | 20.2 µM | 3.48 | 11.7 | 1.93 | 4.51 | 3.04 | 12.4 | 25.7 | 5.69 | 18 µM | 5.96 | 18.6 | 10.2 µM
Cn1cc(-c2ccc3cc(-c4ccc(CC(=O)Nc5cc(C(C)(C)C)nn5C)cc4)cnc3c2)cn1 | 0.314 | – | 0.409 | > 100 | 0.0233 | > 100 | 0.146 | > 100 µM | 0.317 | > 100 | 0.251 | > 100 | 0.307 | 0.138 | – | 0.227 | 0.585 µM | 0.109 | > 100 | > 100 µM
